Source: patent US5700640A, “Inducers of gamma globin gene expression and screening assays therefor” (priority 1994, dated 1997)

Columns and labels:
[1] = tested on: BA-induced reporter gene expression in gamma3'PE K562 cells; assay: effect of extracellular KCl on BA-induced reporter gene activity; format: cell-based, human
Protocol: Valinomycin is a potassium ionophore known to cause depolarization of the K^+ gradient existing across cell membranes. To determine whether the effect of valinomycin indicated a requirement for a K^+ gradient for uptake of BA, gamma3'PE reporter cells were incubated in the presence of culture medium supplemented with increasing concentrations of KCl. Thus, as opposed to valinomycin, this treatment extinguishes the existing K^+ gradient from the external side of the membrane without affecting internal K^+ concentrations. Cells cultured in increasing concentrations on KCl were treated for 5 hours with BA and then harvested and assayed for luciferase activity. The results are shown in FIG. 10, wherein the bars indicate the level of reporter gene activity after induction in the presence of the indicated concentration of KCl and the asterisks indicate basal (uninduced) levels of reporter gene activity in replicate cultures.

[2] = tested on: gamma globin reporter gene activity in gamma3'PE K562 cells (protein kinase C inhibition); assay: effect of the pKC inhibitor hypericin on basal and BA-induced reporter gene activity; format: cell-based, human; details: 10 mM hypericin, 1 hour before 5 mM BA for 24 hours
Protocol: Consistent with the results using the pKC activator (-) indolactam V are the results of experiments utilizing the pKC inhibitor hypericin. In these experiments, cells were incubated in the presence or absence of hypericin (10 mM; LC Laboratories) for one hour prior to treatment with 5 mMBA for 24 hours, followed by harvesting of the cells and assaying of luciferase activity.

BA uptake by colonocytes = details: Mascolo et al. 1991; cited from earlier work
K562 cells = assay: trypan blue exclusion; format: cell-based, human
[3] = tested on: BA-mediated induction of luciferase activity in gamma3'PE K562 cells; assay: effect of transport inhibitors on BA-induced reporter gene activity in gamma3'PE K562 cells; format: cell-based, human
Protocol: To characterize uptake of butyric acid by erythroid cells, K562 cells stably transfected with gamma3'PE were treated with BA in the presence of various transport inhibitors. […] Cells were maintained in the continuous presence of both BA and the inhibitor for 24 hours and then luciferase activity in the cells was measured.

[4] = tested on: 14C BA transport into K562 cells; assay: 14C butyric acid incorporation into gamma3'PE-transfected K562 cells; format: cell-based, human; details: valinomycin 10 μM, 1 hour preincubation; 50 μM 14C BA
Protocol: To directly examine whether transport of BA into erythroid cells required an intact K+ gradient, the incorporation of ^14 C BA into gamma3'PE-transfected K562 cells was assayed in the presence and absence of 10 μM valinomycin. Cells were incubated with 10 μM valinomycin for 1 hour prior to addition of ^14 C butyric acid (obtained commercially from Dupont/New England Nuclear) to a final concentration of 50 μM. At various times after addition of ^14 C BA, cells were harvested by vacuum filtration through a GF/C filter (Whatman) and washed with a total of 5 ml of RPMI culture media. Radioactivity associated with the cells was quantified directly by liquid scintillation counting of the filter. The results, shown in FIG. 11, indicate that the rate of ^14 C BA incorporation into the cells is inhibited nearly three fold by the addition of valinomycin. Although cells treated with valinomycin did accumulate some ^14 C BA, it is not clear whether this was actually internalized or bound to the surface of the cell. Neutralization of the potassium gradient could be expected to selectively prevent internalization but not binding of radioligand. […] Accordingly, the results described herein are consistent with an erythroid-specific transport mechanism for uptake of BA that is dependent upon an intact K^+ gradient across the cell membrane.

[5] = tested on: gamma globin-regulated luciferase mRNA; assay: cells; format: cell-based, human
Protocol: Total RNA was prepared by the method of McDonald as described in Sambrook et al., (1989) Molecular Cloning: A Laboratory Manual, 2nd Edition, Cold Spring Harbor Laboratory Press. 10 μg total cellular RNA was electrophoresed through agarose gels containing 3.3% formaldehyde. The electrophoresed RNA was then transferred to nitrocellulose filters by standard methods. Each sample was hybridized to specific probes for gamma globin mRNA, mRNA encoding the erythroid specific transcription factor GATA-1 and 28S ribosomal RNA (which was used for standardization). The gamma globin and GATA-1 probes were cDNA probes, which were labeled with ^32 p by random priming reactions (Promega Biotech Inc.). The 28S ribosomal RNA probe was an oligonucleotide having the sequence 5' […] 3' (SEQ ID NO: 3), which was labeled by 5' end labeling using T4 polynucleotide kinase (New England Biolabs). Nucleotide probes were hybridized to the RNA nitrocellulose filters according to standard techniques. After hybridization, radioactive signals on the nitrocellulose filters were directly quantified using a BioRad GS-250 Molecular Imager. mRNA hybridization intensities were normalized to the amount of 28S ribosomal RNA present for each sample. The results are summarized below in Table 1:
To determine if BA exerts its inductive effects by acting directly on pre-existing proteins in the cells, the effect of the protein synthesis inhibitor cycloheximide (CHX) on BA-induced expression of RNA was analyzed. In these experiments, gamma3'PE cells were incubated with 150 μg/ml CHX for 2 hr prior to addition of BA (5 mM). Control cells were incubated with either CHX or BA alone or were mock incubated. Cells were harvested 5 hr later for preparation of total RNA. RNA samples were electrophoresed, transferred to nitrocellulose and hybridized to a ^32 P-labeled luciferase cDNA probe as described in Example 4. The radioactive signals on the filter were quantitated using a BioRad GS-250 Molecular Imager and mRNA levels were normalized to values obtained for mock treated samples. […]

GATA-1 mRNA = GATA-1 mRNA level (Northern) with BA and/or cycloheximide in gamma3'PE cells; format: cell-based, human
Protocol: To determine if BA exerts its inductive effects by acting directly on pre-existing proteins in the cells, the effect of the protein synthesis inhibitor cycloheximide (CHX) on BA-induced expression of RNA was analyzed. In these experiments, gamma3'PE cells were incubated with 150 μg/ml CHX for 2 hr prior to addition of BA (5 mM). Control cells were incubated with either CHX or BA alone or were mock incubated. Cells were harvested 5 hr later for preparation of total RNA. RNA samples were electrophoresed, transferred to nitrocellulose and hybridized to a ^32 P-labeled luciferase cDNA probe as described in Example 4. The radioactive signals on the filter were quantitated using a BioRad GS-250 Molecular Imager and mRNA levels were normalized to values obtained for mock treated samples. The results are presented graphically in FIG. 12, Panel A. BA treatment alone increased gamma globin-regulated luciferase mRNA by approximately 6 fold.
The results, normalized to mock treated samples, are depicted graphically in FIG. 12, Panel B. In contrast to luciferase mRNA which was induced by BA treatment, the level of GATA-1 RNA decreases about 3 fold in response to BA treatment.

[Cl-].[K+] [KCl]
basal level globin expression at higher K+ concentrations ([1]; K+ above approximately 200 mM): a reduction in basal level globin expression was observed at higher K^+ concentrations
external K+ concentration inhibiting BA-induced reporter gene expression ([1]; KCl in medium, BA 5 hours): approximately 200 mM
effect on basal level gene expression ([1]; approximately 200 mM KCl): basal level gene expression was not affected

Cc1cc(O)c2c(=O)c3c(O)cc(O)c4c5c(O)cc(O)c6c(=O)c7c(O)cc(C)c8c1c2c(c34)c(c78)c65 [hypericin]
effect on basal level and BA induced globin gene expression [2]: significant reduction in both basal level and BA induced globin gene expression

CC(C)[C@@H]1NC(=O)[C@H](C)OC(=O)[C@@H](C(C)C)NC(=O)[C@@H](C(C)C)OC(=O)[C@H](C(C)C)NC(=O)[C@H](C)OC(=O)[C@@H](C(C)C)NC(=O)[C@@H](C(C)C)OC(=O)[C@H](C(C)C)NC(=O)[C@H](C)OC(=O)[C@@H](C(C)C)NC(=O)[C@@H](C(C)C)OC1=O [valinomycin]
effect on BA uptake by colonocytes (BA uptake by colonocytes): not inhibited by valinomycin
non-specific toxic effect (K562 cells): did not result from a non-specific toxic effect
reduction in BA-mediated globin gene induction ([3]; valinomycin 10 μM, 24 hours): 4 fold
effect on basal level globin gene expression ([3]; valinomycin, no BA): did not affect basal level globin gene expression
inhibition of rate of 14C BA incorporation [4]: three

C[C@@H]1C[C@@H]([C@H](O)CC2CC(=O)NC(=O)C2)C(=O)[C@@H](C)C1 [cycloheximide]
effect of cycloheximide alone on luciferase mRNA ([5]; 150 μg/ml CHX alone): significant increase in gamma globin-regulated luciferase mRNA, albeit to a lower level than that observed with BA
effect of cycloheximide on BA-mediated induction of luciferase mRNA ([5]; CHX 150 μg/ml 2 hr before BA 5 mM): failed to block BA-mediated induction of luciferase mRNA
effect of cycloheximide alone on GATA-1 mRNA level (GATA-1 mRNA; 150 μg/ml CHX alone): insensitive to cycloheximide treatment alone
effect of cycloheximide on BA induced decrease in GATA-1 mRNA level (GATA-1 mRNA; CHX 150 μg/ml plus BA 5 mM): sensitive to cycloheximide treatment
